Values quoted from earlier work in US10927398B2, “Compositions for CYP450 phenotyping using saliva samples” (Concordia University, Inc., priority 2015, dated 2021).
Like-named read-outs stand apart in the source and are kept apart here.

Columns and labels:
[1] = cited from earlier work
[2] = cited from earlier work; remark: listed apart in the source
[3] = system: plasma protein; settings: cited from earlier work
[4] = Table of Exemplary Drugs, CYP3A4
[5] = Table of Exemplary Drugs, CYP2C19
[6] = Table of Exemplary Drugs, CYP2D6
[7] = Table of Exemplary Drugs, CYP1A2
[8] = Table of Exemplary Drugs, CYP2C9

CCc1ccc(CCOc2ccc(CC3SC(=O)NC3=O)cc2)nc1 (stereo not drawn) [Pioglitazone]
ORAL BIOAVAILABILITY [1, 4]: 50% | HALF-LIFE [2, 4]: 3 to 7 h | PLASMA PROTEIN BINDING [3, 4]: >99%

O=C(C1CCCCC1)N1CC(=O)N2CCc3ccccc3C2C1 (stereo not drawn) [Praziquantel (Biltricide), Praziquantel]
ORAL BIOAVAILABILITY [1, 4]: 80% | HALF-LIFE [2, 4]: 0.8 to 3 h | PLASMA PROTEIN BINDING [3, 4]: 80%

CCC1(c2ccccc2)C(=O)NCNC1=O [Primidone]
ORAL BIOAVAILABILITY [1, 5]: 90-100% | HALF-LIFE [2, 5]: 3.3 to 7 h | PLASMA PROTEIN BINDING [3, 5]: 20-30% ^

CC(=O)[C@H]1CC[C@H]2[C@@H]3CCC4=CC(=O)CC[C@]4(C)[C@H]3CC[C@]12C [Progesterone]
ORAL BIOAVAILABILITY [1, 5]: 10-15% | HALF-LIFE ([2]; cell marked PV, Table of Exemplary Drugs, CYP2C19): PV: 5-20 min | PLASMA PROTEIN BINDING [3, 5]: 95-99% ^

CC(CN1c2ccccc2Sc2ccccc21)N(C)C (stereo not drawn) [Promethazine]
ORAL BIOAVAILABILITY [1, 6]: 88% | HALF-LIFE [2, 6]: 16 to 19 h | PLASMA PROTEIN BINDING [3, 6]: 93%

CCC(=O)O[C@](Cc1ccccc1)(c1ccccc1)[C@H](C)CN(C)C [Propoxyphene (Darvon), Propoxyphene]
ORAL BIOAVAILABILITY [1, 4]: 40% | HALF-LIFE [2, 4]: 6 to 12 h | PLASMA PROTEIN BINDING [3, 4]: 78%

Fc1ccccc1C1=NCC(=S)N(CC(F)(F)F)c2ccc(Cl)cc21 [Quazepam (Doral), Quazepam]
ORAL BIOAVAILABILITY [1, 4]: 29-35% | HALF-LIFE [2, 4]: 25 to 41 h | PLASMA PROTEIN BINDING [3, 4]: >95%

COc1ccccc1OCC(O)CN1CCN(CC(=O)Nc2c(C)cccc2C)CC1 (stereo not drawn) [Ranulazine (Ranexa), Ranulazine]
ORAL BIOAVAILABILITY [1, 4]: 55% | HALF-LIFE [2, 4]: 7 to 8.9 h | PLASMA PROTEIN BINDING [3, 4]: 62%

CCN1CCC[C@H]1CNC(=O)c1c(OC)ccc(Br)c1OC [Remoxipride]
ORAL BIOAVAILABILITY [1, 6]: 96% | HALF-LIFE [2, 6]: 3 to 6 h | PLASMA PROTEIN BINDING [3, 6]: 5-6%

CCOc1cc(CC(=O)N[C@@H](CC(C)C)c2ccccc2N2CCCCC2)ccc1C(=O)O [Repaglinide (Prandin), Repaglinide]
ORAL BIOAVAILABILITY [1, 4]: 56% | HALF-LIFE [2, 4]: 1 h | PLASMA PROTEIN BINDING [3, 4]: >98%

CCCN1CCCC[C@H]1C(=O)Nc1c(C)cccc1C [Ropivacaine]
ORAL BIOAVAILABILITY ([1]; cell marked IV, Table of Exemplary Drugs, CYP1A2): 87-98% - IV | HALF-LIFE [2, 7]: 5 to 7 h | PLASMA PROTEIN BINDING [3, 7]: 94%

CC(C)CC(N(C)C)C1(c2ccc(Cl)cc2)CCC1 (stereo not drawn) [Sibutramine (Meridia), Sibutramine]
ORAL BIOAVAILABILITY [1, 4]: 77% | HALF-LIFE [2, 4]: 1.1 h | PLASMA PROTEIN BINDING [3, 4]: 97%

CO[C@H]1C[C@@H]2CC[C@@H](C)[C@@](O)(O2)C(=O)C(=O)N2CCCC[C@H]2C(=O)O[C@H]([C@H](C)C[C@@H]2CC[C@@H](O)[C@H](OC)C2)CC(=O)[C@H](C)/C=C(\C)[C@@H](O)[C@@H](OC)C(=O)[C@H](C)C[C@H](C)/C=C/C=C/C=C/1C [Sirolimus (Rapamune), Sirolimus]
ORAL BIOAVAILABILITY [1, 4]: 14-27% | HALF-LIFE [2, 4]: 61.3 to 72.3 h | PLASMA PROTEIN BINDING [3, 4]: 92%

O=C(O[C@H]1CN2CCC1CC2)N1CCc2ccccc2[C@@H]1c1ccccc1 [Solifenacin (Vesicare), Solifenacin]
ORAL BIOAVAILABILITY ([1]; in vivo, po): 90% | HALF-LIFE ([2]; in vivo): 45 to 68 h | PLASMA PROTEIN BINDING ([3]; plasma): 98%

CC(C(=O)O)c1ccc(C(=O)c2cccs2)cc1 (stereo not drawn) [Suprofen]
ORAL BIOAVAILABILITY [1, 8]: 92% | HALF-LIFE [2, 8]: 2 to 4 h | PLASMA PROTEIN BINDING [3, 8]: >99%

CCCCCc1cc(O)c2c(c1)OC(C)(C)[C@@H]1CCC(C)=C[C@@H]21 [THC]
ORAL BIOAVAILABILITY [1, 8]: 10-35% | HALF-LIFE [2, 8]: 1.6 to 59 h | PLASMA PROTEIN BINDING [3, 8]: 97-99% ^

Nc1c2c(nc3ccccc13)CCCC2 [Tacrine]
ORAL BIOAVAILABILITY ([1]; in vivo, po): 2.4-36% | HALF-LIFE ([2]; in vivo): 2 to 4 h | PLASMA PROTEIN BINDING ([3]; plasma): 55%

C=CC[C@@H]1/C=C(\C)C[C@H](C)C[C@H](OC)[C@H]2O[C@@](O)(C(=O)C(=O)N3CCCC[C@H]3C(=O)O[C@H](/C(C)=C/[C@@H]3CC[C@@H](O)[C@H](OC)C3)[C@H](C)[C@@H](O)CC1=O)[C@H](C)C[C@@H]2OC [Tacrolimus (Prograf), Tacrolimus]
ORAL BIOAVAILABILITY [1, 4]: 17-31% | HALF-LIFE [2, 4]: 8.7 to 37.9 h | PLASMA PROTEIN BINDING [3, 4]: 99%

CCOc1ccccc1OCCN[C@H](C)Cc1ccc(OC)c(S(N)(=O)=O)c1 [Tamsulosin (Flomax), Tamsulosin]
ORAL BIOAVAILABILITY [1, 4]: >90% | HALF-LIFE [2, 4]: 9 to 15 h | PLASMA PROTEIN BINDING [3, 4]: 94-99% ^

CC[C@@H](c1cccc(O)c1)[C@@H](C)CN(C)C [Tapentadol]
ORAL BIOAVAILABILITY [1, 8]: 32% | ORAL BIOAVAILABILITY [1, 5]: 32% | ORAL BIOAVAILABILITY [1, 6]: 32% | HALF-LIFE [2, 8]: 4 to 5 h | HALF-LIFE [2, 5]: 4 to 5 h | HALF-LIFE [2, 6]: 4 to 5 h | PLASMA PROTEIN BINDING [3, 8]: 20% | PLASMA PROTEIN BINDING [3, 5]: 20% | PLASMA PROTEIN BINDING [3, 6]: 20%

CN(C/C=C/C#CC(C)(C)C)Cc1cccc2ccccc12 [Terbinafine]
ORAL BIOAVAILABILITY [1, 8]: 40% | HALF-LIFE [2, 8]: 22 to 26 h | PLASMA PROTEIN BINDING [3, 8]: >99%

C[C@]12CC[C@H]3[C@@H](CCC4=CC(=O)CC[C@@]43C)[C@@H]1CC[C@@H]2O [Testosterone]
ORAL BIOAVAILABILITY ([1]; in vivo, po): Varies | HALF-LIFE (hrs) ([2]; in vivo): varies | PLASMA PROTEIN BINDING ([3]; plasma): 98%
